Laboratory results as given in patent publication US20260226128A1, “Capped Peptides and Methods for Using the Same” (The Board of Trustees of the Leland Stanford Junior …, priority 2023, published 2026).

Tested on: diet induced obese mice
Test: Food intake 2 hours post injection of CAP-GDF15 human homologue
Type: in vivo, mouse
Conditions: 50 mg/kg, single injection, versus vehicle
Procedure: FIG. 12. Human CAP-GDF15 homologue inhibits food intake. Food intake of diet induced obese mice 2 hours post injection with vehicle or 50 mg/kg CAP-GDF15 human homologue (pGlu-[…]-NH2). (N=8 mice/group, error bars are SEM, and P values calculated with two-sided Student's T test.)
Human CAP-GDF15 treatments in mice. Singly housed diet induced obese (on high fat diet, 4 months old, male, C57BL/6J, Jackson cat #380050) mice were injected with vehicle (18:1:1 Saline: DMSO: Kolliphor EL) or 50 mg/kg CAP-GDF15 human homologue (pGlu-[…]-NH2) once at ~5 μm. Food weight was measured before injection and 2 hours post to calculated food intake. (N=8 mice/group)

“pGlu-LELHLRPQAAR-NH2 (HELM PEPTIDE1{[Glp].L.E.L.H.L.R.P.Q.A.A.R.[am]}$$$$V2.0; SMILES CC(C)C[C@H](NC(=O)[C@@H]1CCC(=O)N1)C(=O)N[C@@H](CCC(=O)O)C(=O)N[C@@H](CC(C)C)C(=O)N[C@@H](Cc1c[nH]cn1)C(=O)N[C@@H](CC(C)C)C(=O)N[C@@H](CCCNC(=N)N)C(=O)N1CCC[C@H]1C(=O)N[C@@H](CCC(N)=O)C(=O)N[C@@H](C)C(=O)N[C@@H](C)C(=O)N[C@@H](CCCNC(=N)N)C(N)=O) [human homologue of CAP-GDF15]” was tested, and the “food intake 2 hours post injection” value was “acutely inhibits food intake”.
